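Assay format: 96-well plates, 48-hour exposure. Abbreviation: GI50, concentration required for 50% inhibition of growth.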 Calls of active or inactive are those of the source. No stated cut-off is given here; in the data, active = GI50 up to about 1.1 µM and inactive = higher.
Experiments:
Assay in all cases: inhibition of tumour cell growth, NCI panel, 48 h
[1] = system: SNB-19
[2] = system: NCI/ADR-RES
[3] = system: NCI-H460
[4] = system: UACC-257
[5] = system: SK-OV-3
[6] = system: T47D
[7] = system: U-251
[8] = system: HCT-116
[9] = system: Hs-578T
[10] = system: SK-MEL-2
[11] = system: SW-620
[12] = system: SK-MEL-5
[13] = system: RXF 393
[14] = system: PC-3
[15] = system: EKVX
[16] = system: SK-MEL-28
[17] = system: UO-31
[18] = system: OVCAR-3
[19] = system: KM12
[20] = system: HL-60
[21] = system: HT-29
[22] = system: RPMI-8226
[23] = system: UACC-62
[24] = system: HCC 2998
[25] = system: SNB-75
[26] = system: A549
[27] = system: OVCAR-4
[28] = system: COLO 205
[29] = system: SR
[30] = system: TK-10
[31] = system: MCF7
[32] = system: OVCAR-5
[33] = system: HOP-62
[34] = system: NCI-H226
[35] = system: A498
[36] = system: MOLT-4
[37] = system: OVCAR-8
[38] = system: Malme-3M
[39] = system: HOP-92
[40] = system: CAKI-1
[41] = system: CCRF-CEM
[42] = system: DU-145
[43] = system: NCI-H522
[44] = system: IGROV-1
[45] = system: MDA-MB-435
[46] = system: HCT-15
[47] = system: SF-268
[48] = system: LOX IMVI
[49] = system: NCI-H23
[50] = system: 786-0
[51] = system: MDA-N
[52] = system: K562
[53] = system: M14
[54] = system: SN12C
[55] = system: BT-549
[56] = system: MDA-MB-231
[57] = system: SF-295
[58] = system: ACHN
[59] = system: SF-539

O=C(O)c1cc(/N=C/c2ccccc2O)cc(C(=O)O)c1
GI50 [1]: > 100 µM (inactive) | GI50 [2]: > 100 µM (inactive) | GI50 [3]: > 100 µM (inactive) | GI50 [4]: > 100 µM (inactive) | GI50 [5]: > 100 µM (inactive) | GI50 [6]: > 100 µM (inactive) | GI50 [7]: > 100 µM (inactive) | GI50 [8]: > 100 µM (inactive) | GI50 [9]: > 100 µM (inactive) | GI50 [10]: > 100 µM (inactive) | GI50 [11]: > 100 µM (inactive) | GI50 [12]: > 100 µM (inactive) | GI50 [13]: > 100 µM (inactive) | GI50 [14]: > 100 µM (inactive) | GI50 [15]: > 100 µM (inactive) | GI50 [16]: > 100 µM (inactive) | GI50 [17]: > 100 µM (inactive) | GI50 [18]: 15.3 µM (inactive) | GI50 [19]: > 100 µM (inactive) | GI50 [20]: > 100 µM (inactive) | GI50 [21]: > 100 µM (inactive) | GI50 [22]: > 100 µM (inactive) | GI50 [23]: > 100 µM (inactive) | GI50 [24]: > 100 µM (inactive) | GI50 [25]: > 100 µM (inactive) | GI50 [26]: > 100 µM (inactive) | GI50 [27]: > 100 µM (inactive) | GI50 [28]: > 100 µM (inactive) | GI50 [29]: > 100 µM (inactive) | GI50 [30]: > 100 µM (inactive) | GI50 [31]: > 100 µM (inactive) | GI50 [32]: > 100 µM (inactive) | GI50 [33]: > 100 µM (inactive) | GI50 [34]: > 100 µM (inactive) | GI50 [35]: > 100 µM (inactive) | GI50 [36]: 86.9 µM (inactive) | GI50 [37]: > 100 µM (inactive) | GI50 [38]: > 100 µM (inactive) | GI50 [39]: > 100 µM (inactive) | GI50 [40]: > 100 µM (inactive) | GI50 [41]: > 100 µM (inactive) | GI50 [42]: > 100 µM (inactive) | GI50 [43]: > 100 µM (inactive) | GI50 [44]: > 100 µM (inactive) | GI50 [45]: > 100 µM (inactive) | GI50 [46]: > 100 µM | GI50 [47]: > 100 µM (inactive) | GI50 [48]: > 100 µM (inactive) | GI50 [49]: > 100 µM (inactive) | GI50 [50]: > 100 µM (inactive) | GI50 [51]: > 100 µM (inactive) | GI50 [52]: > 100 µM (inactive) | GI50 [53]: > 100 µM (inactive) | GI50 [54]: > 100 µM (inactive) | GI50 [55]: > 100 µM (inactive) | GI50 [56]: > 100 µM (inactive) | GI50 [57]: > 100 µM (inactive) | GI50 [58]: > 100 µM (inactive) | GI50 [59]: > 100 µM (inactive)

From ChEMBL document CHEMBL1201862, “PubChem BioAssay data set” (2004)
